Assay results: patent publication US6911430B2, “Compositions and methods for treating ileus” (VipoGen, LLC, priority 2003, dated 2005)
Ends that are not written are not given here.

Tested on: Male Wistar rats
Assay: Intestinal transit of Evans blue after laparotomy and manipulation of the intestines (postoperative ileus model)
Assay type: in vivo, rat
Details: single peptide approx. 150 μg per kg i.v. tail vein bolus 1 minute before surgery, skin incision, 20 minute transit period, mean
Description: Male Wistar rats are commonly used to study the mechanisms that regulate gastrointestinal function by several laboratories across the United States and the world. This model is well characterized experimentally and has the added advantage of providing results in a short time frame, limiting the animal's distress.
Two hours prior to start of surgery, the required amount of peptide was measured to the nearest […] and placed into 0.5 ml saline. The suspension was then vortexed for 1 minute and then incubated at room temperature for one hour after. The solution was kept refrigerated until 30 minutes before the onset of surgery. The solution was allowed to warm to room temperature for 30 minutes prior to the surgery. Following this warming period, the solution was placed into a 1 cc insulin syringe for tail vein injection 1 minute prior to surgery.
Male Wistar rats (150-250 g) were fasted for 48 hours with free access to water. This fast was necessary to empty the gastrointestinal tract so that the Evans Blue introduced after the surgery could be accurately tracked. The rats were divided into groups in a randomized way. The randomized groups were then given isoflorane anesthesia, followed by clearing of the abdominal area with 10% antibacterial iodine solution and alcohol and shaving prior to surgery. Isoflorane was administered continuously (3-5%) using a vaporizer. […] Diethyl ether can also be used for anesthesia.
Thereafter, the rats received an i.v. injection (VIP receptor antagonists, PACAP receptor antagonists, or combination thereof were delivered in saline) in the tail vein of the appropriate drug or control for its group one minute before the operation. The peptides included VIP (10-28) and PACAP (6-38). The dosage amount of each peptide administered was approximately 150 μg per kg body weight. For the combination treatment a ratio of 1:1 of a PACAP receptor antagonist to VIP receptor antagonists was used, the total peptide amount being approximately 300 μg per kg body weight. The peptide dosages were consistent animal to animal throughout the study and were administered by bolus injections.
All groups underwent a laparotomy consisting of the incision of the abdominal skin, abdominal muscle layers and peritoneum. The laparatomy was followed by evisceration and manipulation of the small intestine and the caecum. In these experiments, the caecum and small intestine were gently pulled out of the abdominal cavity, unfurled like a fan and exposed on two sterile gauzes covering the abdomen of the rat. […]
Twenty minutes later, the rats were euthanized by an overdose pentobarbital (150 mg/kg i.v. tail vein) and the intestinal transit was measured from the pylorus to the most distal point of the migration of Evans blue and expressed in cm.

Substance | % of the intestinal length traversed by Evan's Blue [%] | intestinal motility: distance Evan's Blue traveled through the intestines [cm]
PACAP(6-38) (FTDSYSRYRKQMAVKKYLAAVLGKRYKQRVKNK; ends and bridges not checked; listed as Homo sapiens) [PACAP-RA] | 32 | 23
VIP(10-28) (YTRLRKQMAVKKYLNSILN; listed as Homo sapiens) [VIP-RA] | 31 | 26
